The values that follow come from patent US20230086703A1, “N-(4-(5-chloropyridin-3-yl)phenyl)-2-(2-(cyclopropanesulfonamido)pyrimidin-4-yl) butanamide derivatives and related compounds as human CTPS1 inhibitors for the treatment of proliferative diseases” (Step Pharma S.A.S., priority 2019, published 2023).

Test [1] addresses T1, human CTPS1 (Homo sapiens, UniProt P17812).
T1 construct: FLAG (with GG linker); His8 (with GG linker); purchased Proteros biostructures GmbH
T1 sequence (P17812 1-591): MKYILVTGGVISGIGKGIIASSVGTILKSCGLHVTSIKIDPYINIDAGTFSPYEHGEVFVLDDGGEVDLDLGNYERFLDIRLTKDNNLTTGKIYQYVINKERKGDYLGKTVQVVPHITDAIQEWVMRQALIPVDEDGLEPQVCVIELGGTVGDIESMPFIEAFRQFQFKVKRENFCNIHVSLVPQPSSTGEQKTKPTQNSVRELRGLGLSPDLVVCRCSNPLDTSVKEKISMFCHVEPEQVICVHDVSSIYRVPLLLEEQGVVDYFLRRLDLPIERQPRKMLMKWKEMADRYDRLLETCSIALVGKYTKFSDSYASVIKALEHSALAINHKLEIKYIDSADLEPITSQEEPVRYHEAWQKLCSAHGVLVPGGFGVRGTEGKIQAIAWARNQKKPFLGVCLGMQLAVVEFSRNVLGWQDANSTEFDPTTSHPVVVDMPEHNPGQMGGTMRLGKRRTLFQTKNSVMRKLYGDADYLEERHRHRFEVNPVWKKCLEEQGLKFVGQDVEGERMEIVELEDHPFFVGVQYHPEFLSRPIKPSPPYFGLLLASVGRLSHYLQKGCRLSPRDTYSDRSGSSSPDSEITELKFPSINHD
The test can be described thus: RapidFire/MS-based enzyme selectivity assay (human CTPS1 versus CTPS2), CTPS1 isoform. Conditions: RapidFire/MS IC50 values of CTPS1 and CTPS2; Table 17. Type of test: biochemical. The method in brief: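 Full-length C-terminal FLAG-His-tagged CTPS1 (1-591) was preincubated 10 min at 25 °C with compound in HEPES pH 8.0 buffer with MgCl2, KCl, DTT and Tween-20. Reactions were started with a 2× mix of ATP 0.3 mM, UTP 0.2 mM, GTP 0.07 mM and L-glutamine 0.1 mM, and run in the linear phase at 25 °C. IC50 comes from the RapidFire-MS ratio of CTP to 13C9-15N3-CTP.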

In test [2] the target is T1, human CTPS1. The test can be described thus: Human CTPS1 enzyme inhibition, ADP-Glo Max assay. The format is biochemical. Conditions: Table 12, ADP-Glo Max assay; read-out: CTPS1 (Human CTPS1 Enzyme Inhibition data grouped by potency range). The method in brief:
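Enzyme preincubated with compound for 10 min at 25 °C in 50 mM Tris pH 8.0, 10 mM MgCl2, 0.01% Tween-20, 2 mM L-cysteine. ATP-to-ADP conversion detected by ADP-Glo Max luminescence after 60 min depletion and 60 min development steps. Percentage inhibition calculated per concentration.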

Each structure is given as a SMILES string. pIC50: −log10 of the molar value.

`CCOc1cncc(-c2ccc(NC(=O)C3(c4ccnc(NS(=O)(=O)C5CC5)n4)CCC(N(C)C)CC3)nc2)n1` (single isomer, unassigned) [P230, 1-(2-(cyclopropanesulfonamido)pyrimidin-4-yl)-4-(dimethylamino)-N-(5-(6-ethoxypyrazin-2-yl)pyridin-2-yl)cyclohexane-1-carboxamide]: in test [1], the “Selectivity (fold selectivity between CTPS1 and CTPS2)” value is reported as “+ (2-30 fold (+))”. The pIC50 in test [2] was 5.00 to 6.00.
